From patent US20260151457A1, “Peptides and Fragments for Treating Diabetes and Associated Metabolic Diseases” (Betavive Ltd., priority 2024, published 2026)
“Also recorded” adds a separate entry of the source.

What was measured:
NOD mice [1] = test: Incidence of spontaneous autoimmune type 1 diabetes in NOD mice treated with IGF-2; format: in vivo
Protocol: Non-Obese Diabetic (NOD) mice are a polygenic model for spontaneous autoimmune type 1 diabetes (T1D). NOD mice have an elevated risk for development of autoimmune type 1 diabetes. Thus, NOD mice were used to determine whether treatment IGF-2 reduces spontaneous development of type 1 diabetes.
In this experiment, one group of NOD mice (right panel) was injected with 3000 μg/kg of IGF-2 on each of 76 consecutive days, and a second group of NOD mice (left panel) was injected with saline. […] More specifically, at the end of the 76 days of treatment, only two of the treated mice had developed high glucose levels.
FIG. 30A depicts how many NOD mice have developed autoimmune type I diabetes during an initial 66 days of treatment with IGF-2, and at various intervals post-treatment. In this experiment, one group of NOD mice was injected with 3000 μg/kg of IGF-2 on each of 66 consecutive days, and a second group of NOD mice was injected with saline.
(§1) In one exemplary experiment, NOD mice were treated with a 3000 μg/kg daily doses of IGF-2 for 150 days. ⅘ of the treated mice maintained normoglycemia compared to ¼ of the control mice. In another exemplary experiment, NOD mice were treated with a 3000 μg/kg daily dose of IGF-2 for 75 days with follow-up glucose measurements taken for an additional 90 days (during which IGF-2 was not administered). ⅝ of the treated mice maintained normoglycemia compared to 2/11 of the control mice. The average insulin secretion of the treated mice in both of these experiments was five times greater than the control mice.

STZ-treated mouse islets = test: Insulin secretion from STZ-treated mouse islets; format: cell-based; conditions: islets treated with 2.5 mM STZ; IGF-2 50 nM and 500 nM, GLP-1 100 nM and 1000 nM; 48 hours
Protocol: Mouse islet cells were treated with 2.5 mM STZ and subsequently treated with either IGF-2 (FA) at 50 nM and 500 nM, or with GLP-1 at 100 nM and 1000 nM.

mice = test: Blood glucose concentration kinetics of IGF-2 vs. insulin in a glucose tolerance test; format: in vivo
Protocol: IGF-2 therefore provides an effect that mimics insulin within the body, and that effect is referred to herein as an “insulinomimetic” effect. […] More specifically, when 1 unit of insulin per kg was administered, the recovery in glucose levels began after two hours. But when 800 μg/kg of IGF-2 was administered, the recovery in glucose levels began after six hours. […] In this example, administering IGF-2 can provide better results than administering insulin with respect to blood glucose levels, even when only a single dose was used. Without being bound by this theory, it is possible that the IGF-2 combines with a number of binding proteins in the blood and its active free form is then released slowly from the complex.

[2] = Safety/toxicity: pathology of blood samples and tissue samples from thirty organs; format: in vivo; conditions: end of 10 days of treatment, 24 days after termination, and 100 days after termination of 30 days of treatment
NOD mice [3] = test: Serum insulin / insulin secretion in NOD mice treated with IGF-2; format: in vivo
Protocol: FIG. 30B depicts the levels of serum insulin in NOD mice measured two weeks after a 66 day course of treatment using IGF-2. Mice that were treated with 3000 μg/kg/day of IGF-2 had serum insulin levels that were about 4-fold higher than the control mice.
as §1

C57BL/6 STZ mice = test: Fasting blood glucose in STZ-induced diabetic C57BL/6 mice treated with IGF-2; format: in vivo; conditions: for Fasting glucose levels: individual mice per block
Protocol: C57BL/6 mice male 8-10 weeks old, housed under conventional conditions and allowed laboratory chow and water ad libitum, were used in the experiments described below in Examples 3-4. Within each experiment, animals were matched by age and weight (20-24 g) and randomly divided into groups to receive different treatments. Diabetes was induced by one or more doses of streptozotocin (STZ).
Briefly, animals received intraperitoneally (i.p.) 100 mg/kg (b.w.) STZ (Cayman Chemical, Ann Arbor, MI) dissolved in citrate buffer on pH 4.5 (this procedure was repeated if needed). Clinical diabetes was defined by hyperglycemia (blood glucose levels >300 mg/dl in fasted animals). Fasting blood glucose levels were measured three times per week and samples were taken from the tail tip after starvation for 6 hours throughout the experiment.
Fasting blood glucose levels (mg/dL) were determined using the Accu-Chek Performa glucometer (Roche Diagnostics, Mannheim, Germany). After approximately two weeks of stable hyperglycemia, C57BL/6 STZ mice received exogenous injections of recombinant human IGF-2 (0.3-12 mg/kg/day injection) intraperitoneally for 5-10 consecutive days. During post-treatment follow-up period and upon termination, mice were tested for: fasting glucose, body weight, glucose tolerance test (IPGTT), serum C-peptide level, serum insulin level, and full blood and histological analysis (CBC, Chemistry, Insulin IHC and H&E).

β-MIN6 cells [4] = test: Insulin secretion of β-MIN6 cells following glucose induction; format: cell-based, mouse; conditions: IGF-2 5 nM, 20 nM, 80 nM, 1 week treatment
From the text: (§2) β-MIN6 cells serve as an in vitro model of mouse pancreatic islets. β-MIN6 cells were used as an in vitro model to measure the effects of treatment with IGF-2.

β-MIN6 cells [5] = test: Cell count (proliferation) of β-MIN6 cells; format: cell-based, mouse; conditions: 5 nM, 20 nM, 80 nM, 1 week treatment
From the text: as §2

[6] = average of four STZ mice, daily intraperitoneal 3000 μg/kg/day IGF-2

## insulin-like growth factor 2 [IGF-2]
NOD mice [1]; 3000 μg/kg daily for 75 days, follow-up for an additional 90 days
  Fraction of the treated mice that maintained normoglycemia: ⅝
NOD mice [1]; 3000 μg/kg daily for 150 days
  Fraction of the treated mice that maintained normoglycemia: ⅘
NOD mice [1]; 3000 μg/kg on each of 66 consecutive days and post-treatment
  Incidence of spontaneous autoimmune type 1 diabetes: significantly reduced
NOD mice [1]; 3000 μg/kg on each of 76 consecutive days
  Incidence of spontaneous autoimmune attack: reduced dramatically
NOD mice [1]; at the end of the 76 days of treatment with 3000 μg/kg
  Number of treated mice that had developed high glucose levels: two
STZ-treated mouse islets
  Insulin secretion: increased in a dose dependent manner
mice; glucose tolerance test in mice
  Glucose level after administration: decreased
mice; insulin 1 unit per kg, IGF-2 800 μg/kg, single dose
  Time after which the recovery in glucose levels began: six
[2]
  Pathologies related to treatment in blood samples and tissue samples from thirty organs: No pathologies were identified
NOD mice [3]; 3000 μg/kg/day for 66 days, measured two weeks after treatment
  Serum insulin levels relative to the control mice: about 4 fold
NOD mice [3]; both experiments (150 days; 75 days plus 90 days follow-up)
  Average insulin secretion of the treated mice relative to the control mice: five
C57BL/6 STZ mice; 10:1 ratio of dosages, between 3000 μg and 300 μg
  Hypoglycemia: did not cause hypoglycemia
C57BL/6 STZ mice; STZ mice F3 and F4, IGF-2 800 μg/kg/day
  Fasting glucose levels after the ten day course of injections ended: around 400
C57BL/6 STZ mice; STZ mice, IGF-2 300 μg/kg/day, initial plus ten additional doses
  Fasting glucose levels: did not return to a normal range, and long-term results were not observed; also recorded: temporary drop in fasting glucose levels from days 10-25, but the long-term results were similar to the results for Mouse B5
C57BL/6 STZ mice; STZ mice, IGF-2 800 μg/kg/day, day 0 and ten more times within ten days
  Fasting glucose levels: returned to a normal range during the ten-day course of treatment with IGF-2, and remained in the normal range until the end of the experiment; also recorded: returned to a normal range during the ten-day course of treatment with IGF-2, and remained in the normal range until STZ was provided again
C57BL/6 STZ mice; STZ mice, IGF-2 800 μg/kg/day, half the mice (FIGS. 5A, 5B)
  Blood glucose levels remaining (full or almost full resolution): ~200 mg/dL
C57BL/6 STZ mice; STZ mice, IGF-2 800 μg/kg/day, the remaining mice (FIGS. 6A, 6B)
  Blood glucose levels remaining (partial improvement): ~400 mg/dL
C57BL/6 STZ mice; STZ mice, IGF-2 3000 μg/kg/day, 10 day course
  Fasting glucose levels: returned to a normal range during the ten-day course of treatment with IGF-2, and remained in the normal range until the end of the experiment; also recorded: returned to high levels after the 10 day course treatment with IGF-2 ended; also recorded: initially responded to treatment with a 3000 μg/kg/day dose of IGF-2 but were not permanently cured
C57BL/6 STZ mice; STZ mice, IGF-2 12,000 μg/kg daily on only 5 consecutive days
  Long-term improvements in blood glucose levels: long-term improvements in blood glucose levels were not obtained
C57BL/6 STZ mice; [6]
  Blood glucose level reached (normal range): 100 to 200 mg/dL
  Time to reduce blood glucose to a normal range: 3 to 5 days
C57BL/6 STZ mice; even when the IGF-2 dose was increased to 12,000 μg/kg/day
  Hypoglycemia: Hypoglycemia was never observed
C57BL/6 STZ mice; four STZ mice, 10 day course at 3000 μg/kg/day, no additional doses
  Time post treatment that normal blood glucose levels are maintained: at least 300 days
β-MIN6 cells [4]
  Insulin secretion following glucose induction: increases insulin secretion (following glucose induction) in a dose-dependent manner
β-MIN6 cells [5]
  Cell count (cell proliferation): increases cell proliferation in a dose-dependent manner
